Holding throughout (assay type): cell-based, human
Assay [1] deals with cybrid cells having mtDNA derived from a normal (WT) subject. Put plainly: MMP and viability of cybrid cells with mtDNA from a normal (WT) subject. The settings on record: FIG. 7E. On the procedure: (§1) 200,000 cells were stained with 25 nM TMRM dye (Invitrogen) in parent media of cells. In the case of adherent cells, 10 uM verapamil (Sigma-Aldrich) was added to help retention of the dye. For suspension cells, the incubation of the dye was done for 30 minutes at 37° C., whereas for adherent cells, the incubation was done for 1 hour at 37° C. Suspension cells were kept on ice, then spun at 4000 rpm for 5 minutes at 4° C. in a table-top microcentrifuge, supernatant aspirated, cells washed once with ice-cold PBS, resuspended in ice-cold PBS with 2 ug/mL 7-AAD viability dye, incubated for 5 minutes on ice, and analyzed by FACS. Only 7-AAD negative live cells were analyzed. Adherent cells were first trypsinized, kept on ice, spun at 4000 rpm for 5 minutes at 4° C. in a table-top microcentrifuge, supernatant aspirated, cells washed once with ice-cold PBS, resuspended in ice-cold PBS with 2 ug/mL 7-AAD viability dye, incubated for 5 minutes on ice, and analyzed by FACS. Only 7-AAD negative live cells were analyzed.
(§2) Suspension cells were kept on ice, then spun at 4000 rpm for 5 minutes at 4° C. in a table-top microcentrifuge, supernatant aspirated, cells washed once with ice-cold PBS, resuspended in ice-cold PBS with 2 ug/mL 7-AAD viability dye, incubated for 5 minutes on ice, and analyzed by FACS. […] Viability was assessed by 7-AAD exclusion. […]

Assay [2] relates to KBM7 cells. Put plainly: Cellular ATP (CellTiterGlo) in WT and ATPIF1 KO KBM7 cells. The settings on record: oligomycin added to antimycin. On the procedure: Equal numbers of cells were plated and ATP was determined using a CellTiterGlo assay (Promega) according to the manufacturer's instructions.
On the technique in general: In ATP-based viability assays light output follows the ATP content of the culture.

For the next assay, the system named is COX1 mutant cells. Put plainly: MMP and viability of cybrid cells with mtDNA from a patient with a deficiency in COX1. The settings on record: FIG. 7E. On the procedure: as §1, §2
The subject of assay [3] is KBM7 cells. Put plainly: Viability/proliferation of wild type and ATPIF1 null KBM7 cells treated with mitochondrial poisons (7-AAD, FACS). Conditions: oligomycin added to antimycin; 7-AAD; FIG. 7D. The source says: In order to identify potential drug targets for treatment of mitochondrial disorders, we decided to use inhibitors of oxidative phosphorylation (OXPHOS) to model mitochondrial diseases and search for genes, loss-of-function of which can confer resistance to mitochondrial dysfunction caused by the poison. To that end, we explored use of a screening platform based on gene inactivation in human cells using insertional mutagenesis that has recently been developed using the KBM7 CML cell line, which is haploid for all chromosomes except chromosome 8 (5). In this system, insertional mutagenesis is accomplished using a gene trap vector. […]
For the viability assays described in this Example and Example 2, 200,000 cells were used for each sample. Cells were treated with the desired concentration of drug and viability was assessed four days later using 7-AAD and FACS analysis.
Suspension cells were kept on ice, then spun at 4000 rpm for 5 minutes at 4° C. in a table-top microcentrifuge, supernatant aspirated, cells washed once with ice-cold PBS, resuspended in ice-cold PBS with 2 ug/mL 7-AAD viability dye, incubated for 5 minutes on ice, and analyzed by FACS. For adherent cells, the overlying media and PBS used for pre-trypsinization washes was collected and combined with the suspension of trypsinized cells to gather any dead cells that may have detached into the media. The cell suspensions were kept on ice, spun at 1500 rpm for 5 minutes at 4° C. in a swinging bucket centrifuge, supernatant aspirated, cells washed once with ice-cold PBS, resuspended in ice-cold PBS with 2 ug/mL 7-AAD viability dye, incubated for 5 minutes on ice, and analyzed by FACS. Viability was assessed by 7-AAD exclusion. For HeLa, SH-SY5Y, and Malme-3M cells, 500-2,000 cells were seeded per well of white, clear-bottom 96-well plates (Greiner Bio-One), treated with drugs, and then analyzed using CellTiter-Glo according to the manufacturer's instructions (Promega). For primary hepatocytes, 100,000 cells were seeded per well of a 24-well TPP plate (Light Labs), treated with antimycin, and then analyzed using CellTiter-Glo.

In assay [4] the test system is KBM7 cells. Put plainly: Mitochondrial membrane potential (TMRM staining, FACS) in WT and ATPIF1 KO KBM7 cells. On the procedure:
Membrane potential was assessed using tetramethyl rhodamine methyl ester (TMRM). For the TMRM time course: 200,000 cells were used for each time point. Cells were treated with 121 uM antimycin and incubated in 25 nM TMRM (final concentration) in IMDM 20 minutes from the end of their time point at 37° C. and then analyzed by FACS analysis. Dead cells were excluded using 7-AAD.
as §1
FACS assays. For measurements of ΔΨm, 100,000 cells were incubated with TMRM (25 nM) and the indicated amounts of drugs for the indicated amounts of time before collection. For measurements of mitochondrial mass, 100,000 cells were incubated with MitoTracker Green FM (50 nM) for one hour. For primary hepatocytes, cells were assayed in suspension immediately after harvest from the liver and incubated with verapamil (20 μM) to facilitate retention of TMRM and MitoTracker Green FM signals. Afterwards, cells were collected by centrifugation, washed once with PBS, and resuspended in PBS with 7-AAD (2 μg/mL) for analysis. KBM7 cells and primary hepatocytes were centrifuged at 2000 rpm for 5 minutes and 500 rpm for 5 minutes at 4° C., respectively.

SMILES strings stand for the structures. Entries after “also recorded” stand apart in the source; their conditions may differ.

Regarding `CC[C@H]1/C=C/C=C/C[C@@H](C)[C@H](O)[C@@](C)(O)C(=O)[C@@H](C)[C@H](O)[C@@H](C)C(=O)[C@@H](C)[C@H](O)[C@@H](C)/C=C/C(=O)O[C@@H]2[C@H](C)[C@H](CC1)O[C@]1(CC[C@H](C)[C@H](C[C@@H](C)O)O1)[C@H]2C` [oligomycin], the “MMP and viability of cells having mtDNA derived from healthy subjects (WT)” value in assay [1] is reported as “not cells having mtDNA derived from healthy subjects”. Further, in the assay with KBM7 cells [2], the “ATP of antimycin-treated IF1 KO KBM7 cells on addition of oligomycin” value was “completely prevents IF1 KO cells from rescuing their MMP and using ATP; also recorded: increased ATP levels”. For the same molecule, in the assay on COX1 mutant cells, the “MMP of cells having patient-derived (COX1 deficient) mtDNA” value is on record as “dramatic decrease in MMP” and the “viability of cells having patient-derived (COX1 deficient) mtDNA” value is reported as “kills the cells having patient-derived mtDNA”. The “survival of antimycin-treated IF1 KO KBM7 cells on addition of oligomycin” value with KBM7 cells [3] is recorded as “decreased survival”. Also, in the assay on KBM7 cells [4] (FIG. 4, TMRM), the “rescue by loss of ATPIF1 of the loss of mitochondrial membrane potential caused by the poison” value was “not rescued”. The “MMP (ΔΨm) of antimycin-treated IF1 KO KBM7 cells on addition of oligomycin” value with KBM7 cells [4] (oligomycin added to antimycin) was “completely prevents IF1 KO cells from rescuing their MMP; also recorded: decreased ΔΨm”.

(Values after patent US20150065556A1, “THERAPEUTIC TARGETS FOR MITOCHONDRIAL DISORDERS” (Whitehead Institute for Biomedical Research, priority 2013, published 2015).)
